Assay results taken from patent US20060128792A1, “Deguelin as a chemopreventive agent for lung cancer” (priority 2002, published 2006).
Several values for one entry are separate records, joined by “and”; a condition that tells them apart may be missing. Equal values may be shown once.

Tests used:
Format in all cases: cell-based
[1] = system: H596; experiment: MTT assay, growth inhibition by deguelin or deguelin derivatives; conditions: 3 days
[2] = system: A549; experiment: as above; conditions: 3 days
[3] = system: H460; experiment: as above; conditions: 3 days
[4] = system: H358; experiment: as above; conditions: 3 days
[5] = system: NSCLC cells; experiment: MTT assay, growth inhibition of NSCLC cells by deguelin and deguelin derivatives (Table 2, FIG. 7); conditions: 0.01-1 μM, 3 days
[6] = system: H322; experiment: MTT assay, growth inhibition by deguelin or deguelin derivatives; conditions: 3 days
[7] = system: H1299; experiment: as above; conditions: 3 days

## COc1cc2c(cc1OC)[C@]1(O)C(=O)c3ccc4c(c3O[C@@H]1CO2)C=CC(C)(C)O4 [tephrosin]
[1]; H596, 0.01 μM
  MTT assay reading, Average: 0.1156
  MTT assay reading, individual replicate: 0.062 and 0.127 and 0.078 and 0.138 (2×) and 0.103 and 0.163
[1]; H596, 0.1 μM
  MTT assay reading, Average: 0.0826
  MTT assay reading, individual replicate: 0.082 and 0.062 and 0.066 and 0.095 and 0.09 and 0.058 and 0.125
[1]; H596, 0.5 μM
  MTT assay reading, Average: 0.1631
  MTT assay reading, individual replicate: 0.137 and 0.159 and 0.151 and 0.111 and 0.158 and 0.076 and 0.35
[1]; H596, 1 μM
  MTT assay reading, Average: 0.1983
  MTT assay reading, individual replicate: 0.287 and 0.257 and 0.172 and 0.151 and 0.215 and 0.131 and 0.175
[2]; A549, 0.01 μM
  % control: 0.16%
  MTT assay reading, Average: 0.2403
  MTT assay reading, individual replicate: 0.274 and 0.196 and 0.223 and 0.284 and 0.229 and 0.252 and 0.224
[2]; A549, 0.1 μM
  % control: 0.17%
  MTT assay reading, Average: 0.248
  MTT assay reading, individual replicate: 0.161 and 0.279 and 0.299 and 0.218 and 0.262 and 0.236 and 0.281
[2]; A549, 0.5 μM
  % control: 0.17%
  MTT assay reading, Average: 0.255
  MTT assay reading, individual replicate: 0.299 and 0.243 and 0.26 and 0.217 (2×) and 0.305 and 0.244
[2]; A549, 1 μM
  % control: 0.23%
  MTT assay reading, Average: 0.3313
  MTT assay reading, individual replicate: 0.434 and 0.15 and 0.366 and 0.295 and 0.386 and 0.341 and 0.347
[3]; H460, 0.01 μM
  % control: 0.05%
  MTT assay reading, Average: 0.0956
  MTT assay reading, individual replicate: 0.072 and 0.051 and 0.097 and 0.1 and 0.105 and 0.132 and 0.112
[3]; H460, 0.1 μM
  % control: 0.05%
  MTT assay reading, Average: 0.0816
  MTT assay reading, individual replicate: 0.072 and 0.067 and 0.086 (2×) and 0.112 and 0.056 and 0.092
[3]; H460, 0.5 μM
  % control: 0.08%
  MTT assay reading, Average: 0.141
  MTT assay reading, individual replicate: 0.088 and 0.113 (2×) and 0.159 and 0.16 and 0.19 and 0.164
[3]; H460, 1 μM
  % control: 0.10%
  MTT assay reading, Average: 0.1819
  MTT assay reading, individual replicate: 0.162 and 0.184 and 0.154 and 0.272 and 0.183 and 0.133 and 0.185
[4]; H358, 0.01 μM
  MTT assay reading, Average: 0.6206
  MTT assay reading, individual replicate: 0.508 and 0.601 and 0.658 and 0.674 and 0.608 and 0.59 and 0.705
[4]; H358, 0.1 μM
  MTT assay reading, Average: 0.5327
  MTT assay reading, individual replicate: 0.522 and 0.496 (2×) and 0.558 and 0.516 and 0.579 and 0.562
[4]; H358, 0.5 μM
  MTT assay reading, Average: 0.1047
  MTT assay reading, individual replicate: 0.054 and 0.048 and 0.1 and 0.105 and 0.117 and 0.147 and 0.162
[4]; H358, 1 μM
  MTT assay reading, Average: 0.2634
  MTT assay reading, individual replicate: 0.245 and 0.233 and 0.332 and 0.139 and 0.234 and 0.293 and 0.368
[5]
  inhibiting cell growth in NSCLC cells, ranking among the derivatives: most effective
[6]; H322, 0.01 μM
  MTT assay reading, Average: 0.6627
  MTT assay reading, individual replicate: 0.527 and 0.596 and 0.713 and 0.655 and 0.68 and 0.721 and 0.747
[6]; H322, 0.1 μM
  MTT assay reading, Average: 0.7197
  MTT assay reading, individual replicate: 0.685 and 0.659 and 0.726 and 0.643 and 0.732 and 0.795 and 0.798
[6]; H322, 0.5 μM
  MTT assay reading, Average: 0.1343
  MTT assay reading, individual replicate: 0.113 and 0.109 (2×) and 0.12 and 0.117 and 0.162 and 0.21
[6]; H322, 1 μM
  MTT assay reading, Average: 0.2089
  MTT assay reading, individual replicate: 0.223 and 0.216 (3×) and 0.182 and 0.168 and 0.241
[7]; H1299, 0.01 μM
  MTT assay reading, Average: 0.4143
  MTT assay reading, individual replicate: 0.38 and 0.248 and 0.428 and 0.399 and 0.471 and 0.527 and 0.447
[7]; H1299, 0.1 μM
  MTT assay reading, Average: 0.7746
  MTT assay reading, individual replicate: 0.795 and 0.806 and 0.783 and 0.784 and 0.956 and 0.491 and 0.807
[7]; H1299, 0.5 μM
  MTT assay reading, Average: 0.1507
  MTT assay reading, individual replicate: 0.135 and 0.147 and 0.166 and 0.204 and 0.179 and 0.097 and 0.127
[7]; H1299, 1 μM
  MTT assay reading, Average: 0.2739
  MTT assay reading, individual replicate: 0.261 and 0.279 and 0.255 and 0.26 and 0.36 and 0.183 and 0.319

## methoxyrot-2′-enoic acid
[1]; H596, 0.01 μM
  % control: 6%
  MTT assay reading, Average: 0.0931
  MTT assay reading, individual replicate: 0.037 and 0.055 and 0.067 and 0.122 and 0.101 and 0.118
[1]; H596, 0.1 μM
  % control: 20%
  MTT assay reading, Average: 0.3181
  MTT assay reading, individual replicate: 0.287 and 0.3 and 0.326 and 0.366 and 0.289 and 0.321 and 0.338
[1]; H596, 0.5 μM
  % control: 23%
  MTT assay reading, Average: 0.3653
  MTT assay reading, individual replicate: 0.28 and 0.434 and 0.344 and 0.446 and 0.348 and 0.383 and 0.322
[1]; H596, 1 μM
  % control: 26%
  MTT assay reading, Average: 0.405
  MTT assay reading, individual replicate: 0.422 and 0.37 and 0.481 and 0.573 and 0.319 and 0.328 and 0.342
[2]; A549, 0.01 μM
  MTT assay reading, Average: 0.2983
  MTT assay reading, individual replicate: 0.286 and 0.219 and 0.272 and 0.298 and 0.36 and 0.344 and 0.309
[2]; A549, 0.1 μM
  MTT assay reading, Average: 0.6833
  MTT assay reading, individual replicate: 0.693 and 0.467 and 0.636 and 0.687 and 0.753 and 0.796 and 0.751
[2]; A549, 0.5 μM
  MTT assay reading, Average: 0.5794
  MTT assay reading, individual replicate: 0.542 and 0.837 and 0.514 and 0.534 and 0.588 and 0.579 and 0.462
[2]; A549, 1 μM
  MTT assay reading, Average: 0.6031
  MTT assay reading, individual replicate: 0.783 and 0.583 and 0.67 and 0.758 and 0.515 and 0.477 and 0.436
[3]; H460, 0.01 μM
  % control: 0.11%
  MTT assay reading, Average: 0.1897
  MTT assay reading, individual replicate: 0.037 and 0.62 and 0.096 and 0.098 and 0.122 and 0.16 and 0.195
[3]; H460, 0.1 μM
  % control: 0.08%
  MTT assay reading, Average: 0.1399
  MTT assay reading, individual replicate: 0.139 and 0.105 and 0.129 and 0.16 and 0.133 and 0.147 and 0.166
[3]; H460, 0.5 μM
  % control: 0.16%
  MTT assay reading, Average: 0.2786
  MTT assay reading, individual replicate: 0.297 and 0.26 and 0.302 and 0.283 and 0.291 and 0.282 and 0.235
[3]; H460, 1 μM
  % control: 0.17%
  MTT assay reading, Average: 0.2933
  MTT assay reading, individual replicate: 0.276 and 0.322 and 0.282 and 0.298 and 0.311 and 0.29 and 0.274
[4]; H358, 0.01 μM
  % control: 69%
  MTT assay reading, Average: 0.5804
  MTT assay reading, individual replicate: 0.414 and 0.525 and 0.579 and 0.603 and 0.68 and 0.612 and 0.65
[4]; H358, 0.1 μM
  % control: 29%
  MTT assay reading, Average: 0.2433
  MTT assay reading, individual replicate: 0.196 and 0.173 and 0.287 and 0.284 and 0.293 and 0.247 and 0.223
[4]; H358, 0.5 μM
  % control: 34%
  MTT assay reading, Average: 0.2884
  MTT assay reading, individual replicate: 0.212 and 0.331 and 0.284 and 0.282 and 0.478 and 0.2 and 0.232
[4]; H358, 1 μM
  % control: 36%
  MTT assay reading, Average: 0.3047
  MTT assay reading, individual replicate: 0.283 and 0.248 (2×) and 0.306 and 0.3 and 0.343 and 0.405
[5]
  inhibiting cell growth in NSCLC cells, ranking among the derivatives: most effective
[6]; H322, 0.01 μM
  % control: 97%
  MTT assay reading, Average: 0.8434
  MTT assay reading, individual replicate: 0.729 and 0.806 and 0.748 and 0.791 and 0.898 and 1.011 and 0.921
[6]; H322, 0.1 μM
  % control: 55%
  MTT assay reading, Average: 0.4803
  MTT assay reading, individual replicate: 0.322 and 0.412 and 0.406 and 0.52 and 0.585 and 0.58 and 0.537
[6]; H322, 0.5 μM
  % control: 43%
  MTT assay reading, Average: 0.3787
  MTT assay reading, individual replicate: 0.32 and 0.314 and 0.388 and 0.393 and 0.466 and 0.443 and 0.327
[6]; H322, 1 μM
  % control: 40%
  MTT assay reading, Average: 0.3461
  MTT assay reading, individual replicate: 0.271 and 0.348 and 0.409 and 0.352 and 0.361 and 0.324 and 0.358
[7]; H1299, 0.01 μM
  % control: 0.48%
  MTT assay reading, Average: 0.7507
  MTT assay reading, individual replicate: 0.707 and 0.725 and 0.796 and 0.793 and 0.86 and 0.656 and 0.718
[7]; H1299, 0.1 μM
  % control: 0.29%
  MTT assay reading, Average: 0.4579
  MTT assay reading, individual replicate: 0.401 and 0.474 and 0.434 and 0.387 and 0.526 and 0.465 and 0.518
[7]; H1299, 0.5 μM
  % control: 0.25%
  MTT assay reading, Average: 0.3934
  MTT assay reading, individual replicate: 0.425 and 0.405 and 0.342 and 0.497 and 0.278 and 0.503 and 0.304
[7]; H1299, 1 μM
  % control: 0.22%
  MTT assay reading, Average: 0.3396
  MTT assay reading, individual replicate: 0.29 and 0.384 and 0.395 and 0.301 and 0.289 and 0.346 and 0.372
